{
  "source": "patent US20200187502A1",
  "about": "“MICROBIOCIDAL OXADIAZOLE DERIVATIVES” (SYNGENTA PARTICIPATIONS AG, priority 2017, published 2020)",
  "data": [
    {"tested_on": "Glomerella lacenarium (Colletotrichum lacenarium)", "assay": "Fungicidal activity, liquid culture, cucumber preventative (anthracnose)", "assay_type": "cell-based", "conditions": "20 ppm in the applied formulation, liquid culture in PDB, inhibition of growth measured photometrically 3 to 4 days after application, compared to untreated control, read-out: disease control", "procedure": "Mycelia fragments or conidia suspensions of a fungus prepared either freshly from liquid cultures of the fungus or from cryogenic storage, are directly mixed into nutrient broth. DMSO solutions of the test compound (max. 10 mg/ml) are diluted with 0.025% Tween20 by a factor of 50 and 10 μl of this solution is pipetted into a microtiter plate (96-well format). The nutrient broth containing the fungal spores/mycelia fragments is then added to give an end concentration of the tested compound. The test plates are incubated in the dark at 24° C. and 96% relative humidity. The inhibition of fungal growth is determined photometrically after 2 to 7 days, depending on the pathosystem, and percent antifungal activity relative to the untreated check is calculated.\nConidia of the fungus from cryogenic storage are directly mixed into nutrient broth (PDB—potato dextrose broth). After placing a (DMSO) solution of test compound into a microtiter plate (96-well format), the nutrient broth containing the fungal spores is added. The test plates are incubated at 24° C. and the inhibition of growth is measured photometrically 3 to 4 days after application.\nThe following compounds at 20 ppm in the applied formulation give at least 80% disease control in this test when compared to untreated control under the same conditions, which show extensive disease development.", "units": {"inhibition of growth at 20 ppm": "%"}, "values": [
      {"smiles": "O=C(C(=O)N(Cc1ccc(-c2noc(C(F)(F)F)n2)s1)C1CC1)c1ccccc1", "note": "[Compound 6.54, N-cyclopropyl-2-oxo-2-phenyl-N-[[5-[5-(trifluoromethyl)-1,2,4-oxadiazol-3-yl]-2-thienyl]methyl]acetamide]", "inhibition of growth at 20 ppm": "≥ 80"},
      {"smiles": "CN(C)C(=O)C(=O)N(Cc1ccc(-c2noc(C(F)(F)F)n2)s1)OCC(F)F", "note": "[Compound 6.65, N′-(2,2-difluoroethoxy)-N,N-dimethyl-N′-[[5-[5-(trifluoromethyl)-1,2,4-oxadiazol-3-yl]-2-thienyl]methyl]oxamide]", "inhibition of growth at 20 ppm": "≥ 80"},
      {"smiles": "O=C(C(=O)N(Cc1ccc(-c2noc(C(F)(F)F)n2)s1)OCC(F)F)c1ccco1", "note": "[Compound 6.64, N-(2,2-difluoroethoxy)-2-(2-furyl)-2-oxo-N-[[5-[5-(trifluoromethyl)-1,2,4-oxadiazol-3-yl]-2-thienyl]methyl]acetamide]", "inhibition of growth at 20 ppm": "≥ 80"},
      {"smiles": "CC(C)S(=O)(=O)N(C)Cc1ccc(-c2noc(C(F)(F)F)n2)s1", "note": "[Compound 6.23, N-methyl-N-[[5-[5-(trifluoromethyl)-1,2,4-oxadiazol-3-yl]-2-thienyl]methyl]propane-2-sulfonamide]", "inhibition of growth at 20 ppm": "≥ 80"},
      {"smiles": "CC(C)N(Cc1ccc(-c2noc(C(F)(F)F)n2)s1)C(=O)N1CCCO1", "note": "[Compound 5.58, N-isopropyl-N-[[5-[5-(trifluoromethyl)-1,2,4-oxadiazol-3-yl]-2-thienyl]methyl]isoxazolidine-2-carboxamide]", "inhibition of growth at 20 ppm": "≥ 80"},
      {"smiles": "COCCS(=O)(=O)N(Cc1ccc(-c2noc(C(F)(F)F)n2)s1)OC", "note": "[Compound 1.40, N,2-dimethoxy-N-[[5-[5-(trifluoromethyl)-1,2,4-oxadiazol-3-yl]-2-thienyl]methyl]ethanesulfonamide]", "inhibition of growth at 20 ppm": "≥ 80"},
      {"smiles": "COC(=O)CCS(=O)(=O)N(Cc1ccc(-c2noc(C(F)(F)F)n2)s1)OC", "note": "[Compound 1.39, methyl 3-[methoxy-[[5-[5-(trifluoromethyl)-1,2,4-oxadiazol-3-yl]-2-thienyl]methyl]sulfamoyl]propanoate]", "inhibition of growth at 20 ppm": "≥ 80"},
      {"smiles": "COC(C)C(=O)N(Cc1ccc(-c2noc(C(F)(F)F)n2)s1)OCC(F)F", "note": "(stereo not drawn) [Compound 4.21, N-(2,2-difluoroethoxy)-2-methoxy-N-[[5-[5-(trifluoromethyl)-1,2,4-oxadiazol-3-yl]-2-thienyl]methyl]propanamide]", "inhibition of growth at 20 ppm": "≥ 80"},
      {"smiles": "CCOC(=O)N(Cc1ccc(-c2noc(C(F)(F)F)n2)s1)C(C)C", "note": "[Compound 4.12, ethyl N-isopropyl-N-[[5-[5-(trifluoromethyl)-1,2,4-oxadiazol-3-yl]-2-thienyl]methyl]carbamate]", "inhibition of growth at 20 ppm": "≥ 80"},
      {"smiles": "CCN(Cc1ccc(-c2noc(C(F)(F)F)n2)s1)C(=O)c1ccccc1Cl", "note": "[Compound 5.8, 2-chloro-N-ethyl-N-[[5-[5-(trifluoromethyl)-1,2,4-oxadiazol-3-yl]-2-thienyl]methyl]benzamide]", "inhibition of growth at 20 ppm": "≥ 80"},
      {"smiles": "CON(Cc1ccc(-c2noc(C(F)(F)F)n2)s1)S(C)(=O)=O", "note": "[Compound 1.31, N-methoxy-N-[[5-[5-(trifluoromethyl)-1,2,4-oxadiazol-3-yl]-2-thienyl]methyl]methanesulfonamide]", "inhibition of growth at 20 ppm": "≥ 80"},
      {"smiles": "CC1CC1C(=O)N(Cc1ccc(-c2noc(C(F)(F)F)n2)s1)C(C)C", "note": "(stereo not drawn) [Compound 5.34, N-isopropyl-2-methyl-N-[[5-[5-(trifluoromethyl)-1,2,4-oxadiazol-3-yl]-2-thienyl]methyl]cyclopropanecarboxamide]", "inhibition of growth at 20 ppm": "≥ 80"},
      {"smiles": "CCN(Cc1ccc(-c2noc(C(F)(F)F)n2)s1)C(=O)C(=O)C(C)(C)C", "note": "[Compound 6.41, N-ethyl-3,3-dimethyl-2-oxo-N-[[5-[5-(trifluoromethyl)-1,2,4-oxadiazol-3-yl]-2-thienyl]methyl]butanamide]", "inhibition of growth at 20 ppm": "≥ 80"},
      {"smiles": "O=C(c1ccccc1Cl)N(Cc1ccc(-c2noc(C(F)(F)F)n2)s1)C1CC1", "note": "[Compound 5.35, 2-chloro-N-cyclopropyl-N-[[5-[5-(trifluoromethyl)-1,2,4-oxadiazol-3-yl]-2-thienyl]methyl]benzamide]", "inhibition of growth at 20 ppm": "≥ 80"},
      {"smiles": "CCCCS(=O)(=O)N(Cc1ccc(-c2noc(C(F)(F)F)n2)s1)C1CC1", "note": "[Compound 6.34, N-cyclopropyl-N-[[5-[5-(trifluoromethyl)-1,2,4-oxadiazol-3-yl]-2-thienyl]methyl]butane-1-sulfonamide]", "inhibition of growth at 20 ppm": "≥ 80"},
      {"smiles": "O=C(c1ccccc1Cl)N(Cc1ccc(-c2noc(C(F)(F)F)n2)s1)OCC(F)F", "note": "[Compound 5.44, 2-chloro-N-(2,2-difluoroethoxy)-N-[[5-(5-(trifluoromethyl)-1,2,4-oxadiazol-3-yl]-2-thienyl]methyl]benzamide]", "inhibition of growth at 20 ppm": "≥ 80"},
      {"smiles": "CC(C)N(Cc1ccc(-c2noc(C(F)(F)F)n2)s1)S(=O)(=O)N(C)C", "note": "[Compound 6.4, N-(dimethylsulfamoyl)-N-[[5-[5-(trifluoromethyl)-1,2,4-oxadiazol-3-yl]-2-thienyl]methyl]propan-2-amine]", "inhibition of growth at 20 ppm": "≥ 80"},
      {"smiles": "CON(Cc1ccc(-c2noc(C(F)(F)F)n2)s1)C(=O)n1ccnc1", "note": "[Compound 1.3, N-methoxy-N-[[5-[5-(trifluoromethyl)-1,2,4-oxadiazol-3-yl]-2-thienyl]methyl]imidazole-1-carboxamide]", "inhibition of growth at 20 ppm": "≥ 80"},
      {"smiles": "CC(C)N(Cc1ccc(-c2noc(C(F)(F)F)n2)s1)C(=O)CC1CC1", "note": "[Compound 5.27, 2-cyclopropyl-N-isopropyl-N-[[5-[5-(trifluoromethyl)-1,2,4-oxadiazol-3-yl]-2-thienyl]methyl]acetamide]", "inhibition of growth at 20 ppm": "≥ 80"},
      {"smiles": "C=CCS(=O)(=O)N(Cc1ccc(-c2noc(C(F)(F)F)n2)s1)OC", "note": "[Compound 1.38, N-methoxy-N-[[5-[5-(trifluoromethyl)-1,2,4-oxadiazol-3-yl]-2-thienyl]methyl]prop-2-ene-1-sulfonamide]", "inhibition of growth at 20 ppm": "≥ 80"},
      {"smiles": "CC(C)C(=O)N(Cc1ccc(-c2noc(C(F)(F)F)n2)s1)OCC(F)F", "note": "[Compound 4.20, N-(2,2-difluoroethoxy)-2-methyl-N-[[5-[5-(trifluoromethyl)-1,2,4-oxadiazol-3-yl]-2-thienyl]methyl]propanamide]", "inhibition of growth at 20 ppm": "≥ 80"},
      {"smiles": "CON(Cc1ccc(-c2noc(C(F)(F)F)n2)s1)S(=O)(=O)N1CCCC1", "note": "[Compound 1.36, N-methoxy-N-[[5-[5-(trifluoromethyl)-1,2,4-oxadiazol-3-yl]-2-thienyl]methyl]pyrrolidine-1-sulfonamide]", "inhibition of growth at 20 ppm": "≥ 80"},
      {"smiles": "CC1(C(=O)N(Cc2ccc(-c3noc(C(F)(F)F)n3)s2)OCC(F)F)CC1", "note": "[Compound 5.48, N-(2,2-difluoroethoxy)-1-methyl-N-[[5-[5-(trifluoromethyl)-1,2,4-oxadiazol-3-yl]-2-thienyl]methyl]cyclopropanecarboxamide]", "inhibition of growth at 20 ppm": "≥ 80"},
      {"smiles": "CCN(Cc1ccc(-c2noc(C(F)(F)F)n2)s1)S(=O)(=O)c1ccccc1", "note": "[Compound 6.15, N-ethyl-N-[[5-[5-(trifluoromethyl)-1,2,4-oxadiazol-3-yl]-2-thienyl]methyl]benzenesulfonamide]", "inhibition of growth at 20 ppm": "≥ 80"},
      {"smiles": "CC(C)N(Cc1ccc(-c2noc(C(F)(F)F)n2)s1)C(=O)C1(C)CC1", "note": "[Compound 5.30, N-isopropyl-1-methyl-N-[[5-[5-(trifluoromethyl)-1,2,4-oxadiazol-3-yl]-2-thienyl]methyl]cyclopropanecarboxamide]", "inhibition of growth at 20 ppm": "≥ 80"}
    ]},
    {"tested_on": "Puccinia recondita f. Sp. Tritici", "assay": "Fungicidal activity, wheat leaf disc preventative (brown rust)", "assay_type": "in vivo", "conditions": "foliar, 200 ppm in the applied formulation, wheat leaf segments cv. Kanzler, compared to untreated control, 7 to 9 days after application, read-out: disease control", "procedure": "Leaf disks or leaf segments of various plant species are cut from plants grown in a greenhouse. The cut leaf disks or segments are placed in multiwell plates (24-well format) onto water agar. The leaf disks are sprayed with a test solution before (preventative) or after (curative) inoculation. Compounds to be tested are prepared as DMSO solutions (max. 10 mg/ml) which are diluted to the appropriate concentration with 0.025% Tween20 just before spraying. The inoculated leaf disks or segments are incubated under defined conditions (temperature, relative humidity, light, etc.) according to the respective test system. A single evaluation of disease level is carried out 3 to 14 days after inoculation, depending on the pathosystem. Percent disease control relative to the untreated check leaf disks or segments is then calculated.\nWheat leaf segments cv. Kanzler were placed on agar in multiwell plates (24-well format) and sprayed with the formulated test compound diluted in water. The leaf disks were inoculated with a spore suspension of the fungus 1 day after application. The inoculated leaf segments were incubated at 19° C. and 75% relative humidity (rh) under a light regime of 12 hours light/12 hours darkness in a climate cabinet and the activity of a compound was assessed as percent disease control compared to untreated when an appropriate level of disease damage appears in untreated check leaf segments (7 to 9 days after application).\nThe following compounds at 200 ppm in the applied formulation give at least 80% disease control in this test when compared to untreated control leaf disks under the same conditions, which show extensive disease development.", "units": {"pest or weed control at 200 ppm": "%"}, "values": [
      {"smiles": "O=C(C(=O)N(Cc1ccc(-c2noc(C(F)(F)F)n2)s1)C1CC1)c1ccccc1", "note": "[Compound 6.54, N-cyclopropyl-2-oxo-2-phenyl-N-[[5-[5-(trifluoromethyl)-1,2,4-oxadiazol-3-yl]-2-thienyl]methyl]acetamide]", "pest or weed control at 200 ppm": "≥ 80"},
      {"smiles": "O=C(C(=O)N(Cc1ccc(-c2noc(C(F)(F)F)n2)s1)OCC(F)F)c1ccco1", "note": "[Compound 6.64, N-(2,2-difluoroethoxy)-2-(2-furyl)-2-oxo-N-[[5-[5-(trifluoromethyl)-1,2,4-oxadiazol-3-yl]-2-thienyl]methyl]acetamide]", "pest or weed control at 200 ppm": "≥ 80"},
      {"smiles": "CN(Cc1ccc(-c2noc(C(F)(F)F)n2)s1)S(=O)(=O)c1ccccc1", "note": "[Compound 6.26, N-methyl-N-[[5-[5-(trifluoromethyl)-1,2,4-oxadiazol-3-yl]-2-thienyl]methyl]benzenesulfonamide]", "pest or weed control at 200 ppm": "≥ 80"},
      {"smiles": "CCCCS(=O)(=O)N(C)Cc1ccc(-c2noc(C(F)(F)F)n2)s1", "note": "[Compound 6.24, N-methyl-N-[[5-[5-(trifluoromethyl)-1,2,4-oxadiazol-3-yl]-2-thienyl]methyl]butane-1-sulfonamide]", "pest or weed control at 200 ppm": "≥ 80"},
      {"smiles": "O=S(=O)(c1ccccc1)N(Cc1ccc(-c2noc(C(F)(F)F)n2)s1)C1CC1", "note": "[Compound 6.36, N-cyclopropyl-N-[[5-[5-(trifluoromethyl)-1,2,4-oxadiazol-3-yl]-2-thienyl]methyl]benzenesulfonamide]", "pest or weed control at 200 ppm": "≥ 80"}
    ]}
  ]
}
